Data: patent publication US10980818B2, “Methods for treating ocular inflammatory diseases” (SUN PHARMA GLOBAL FZE, priority 2009, dated 2021)

Experiment: Release of fluorometholone from the gel in the rabbit eye, measured in the aqueous humor
Format: in vivo
Conditions: measured by fluorometholone contained in the aqueous humor; from the gel of the aqueous polymer suspension
Method: The viscous gels that result from fluid eyedrops delivered by means of the aqueous suspensions of this invention have residence times in the eye ranging from about 2 to about 12 hours, e.g., from about 3 to about 6 hours. The active ingredients contained in these ophthalmically acceptable vehicles can be released from the gels at rates that depend on such factors as the active ingredient itself and its physical form, the extent of drug loading and the pH of the system, as well as on any drug delivery adjuvants, such as ion exchange resins compatible with the ocular surface, which can also be present.

Release rates in the rabbit eye: in excess of four hours
Structure (SMILES): CC(=O)[C@@]1(O)CC[C@H]2[C@@H]3C[C@H](C)C4=CC(=O)C=C[C@]4(C)[C@@]3(F)[C@@H](O)C[C@@]21C [fluorometholone]
